Experiments:
Format in all cases: functional
Conditions in all cases: Homo sapiens
[1] = Percent inhibition of sickling of sickle red blood (SS) cells under 4% oxygen was evaluated at 5 mM concentration
[2] = Percent inhibition of sickling of sickle red blood (SS) cells under 4% oxygen was evaluated at 2 mM concentration
[3] = Percent inhibition of sickling of sickle red blood (SS) cells under 4% oxygen was evaluated at 1 mM concentration

Compound	inhibition at 5000 µM [1]	inhibition at 2000 µM [2]	inhibition at 1000 µM [3]
COc1cc(C=O)ccc1O [VANILLIN]	20%		
O=Cc1ccc(CO)o1 [AES-103]	90%	42%	13%
O=Cc1ccco1 [FURFURAL]	30%	0%	0%

From ChEMBL document CHEMBL1138745, “Structural basis for the potent antisickling effect of a novel class of five-membered heterocyclic aldehydic compounds” (2004)
